Data on 2 molecules can be found in patent US20150290232A1, “DRUG COMPOSITION FOR TREATING TUMORS AND APPLICATION THEREOF” (priority 2012, published 2015).

Data set [1] has as its system acute lymphoblastic leukemia (ANLL). The settings on record: initial treatment of ANLL; cited from earlier work.
A further data set deals with leukemia mice. The settings on record: cited from earlier work.
Data set [2] relates to leukemic cell lines L1210 and P388. The settings on record: mice inoculated with L1210 and P388, 0.5-5 mg/kg/day for 10 consecutive days; cited from earlier work.
Data set [3] in a line: Example 5: body weight of tumor-bearing nude mice. It is filed as in vivo, BALB/c-nu nude mice. As to the method: Under sterile conditions, the above tumor cells were collected in the logarithmic growth phase. A549 was injected by subcutaneous injection in an amount of 6×10 6/0.2 mL/nude mice (cell viability>90%) into the right subaxillary of the nude mice, thus establishing transplated tumor models of lung cancer in nude mice. The mice were administered from the second day after the inoculation. […] Each mouse was intragastrically administered in 0.4 ml each time and 2 times a day, at 8:00, and 14:00. The administrations were successive for 14 days. The day before administration was deemed as Day 0 and the body weight and tumor size of the mice were determined every 5 days to produce a dynamic plot on body weight and tumor growth. On Day 20, the mice were sacrificed and the tumors were taken out and weighed. The tumor inhibition rate (%) was calculated after the effect of the medicament based on a tumor inhibition rate of the control group being zero.
(§1) The values determined were presented as mean±standard error (Mean±SD). The experimental data for each group was analyzed with One-way ANOVA method in the SPSS 18.0 statistical software, and p<0.05 means that the differences are statistically significant.

For data set [4] the following is noted: rats, cited from earlier work.
Data set [5] deals with A549 transplanted tumor (human non-small cell lung cancer cell line). Kind of data set: Example 5: Acla A on A549 transplanted tumor in nude mice. It is filed as in vivo, BALB/c-nu nude mice. As to the method:
Under sterile conditions, the above tumor cells were collected in the logarithmic growth phase. A549 was injected by subcutaneous injection in an amount of 6×10 6/0.2 mL/nude mice (cell viability>90%) into the right subaxillary of the nude mice, thus establishing transplated tumor models of lung cancer in nude mice. The mice were administered from the second day after the inoculation. The experimental group was intragastrically administered at the experimentally designed amount, the negative control group was intragastrically administered with sterile water, and the positive control group is intragastrically administered with Jef. Each mouse was intragastrically administered in 0.4 ml each time and 2 times a day, at 8:00, and 14:00. The administrations were successive for 14 days. The day before administration was deemed as Day 0 and the body weight and tumor size of the mice were determined every 5 days to produce a dynamic plot on body weight and tumor growth. On Day 20, the mice were sacrificed and the tumors were taken out and weighed. The tumor inhibition rate (%) was calculated after the effect of the medicament based on a tumor inhibition rate of the control group being zero.
as §1

The subject of data set [6] is mouse leukemia P388 and human gastric cancer cell line SGC-7901. The settings on record: 0.01 μg/ml, in vitro; cited from earlier work.
Data set [7] deals with RPMI 8226 (multiple myeloma). As to the kind of experiment: MTT cell viability, lymphoma and myeloma cells. It is filed as cell-based. The settings on record: Homo sapiens; for IC50: read-out: concentration (IC50 value of 72 hours). On the procedure: (§2) Well-growing cells of above were obtained and inoculated into wells of a 96-well cell culture plate at 5000 cells/well. Separate compounds of various concentrations were added, mixed uniformly, and incubated (5% CO2) at 37° C. for 72 hours. Then the cell viability was determined by the MTT method.
(§3) b) Determine the inhibitory effects of TTD in combination with Ada A on the above cells. The pretreatment of the cells was the same as in a). The control group was not treated with the compound while administered. […] As to the combination group, two compounds were added together into the same group of wells, with the fmal concentrations being the concentrations to which the IC50 values of the two single drugs correspond. After 72 hours of incubation, the MTT method was used for the determination of cell viability. The cell viability of the control group was set to 100% in this experiment, and the TTD, Ada A single drug and combined effects on cell viability (%) were calculated.

In data set [8] the test system is Raji (human Burkitt lymphoma cells). As to the kind of experiment: MTT cell viability, lymphoma and myeloma cells. It is filed as cell-based. The settings on record: 72 h; for IC50: read-out: concentration (IC50 value of 72 hours). As to the method:
as §2, §3

In data set [9] the test system is A549 transplanted tumor (human non-small cell lung cancer cell line). As to the kind of experiment: Example 4: TTD on A549 transplanted tumor in nude mice. It is filed as in vivo, BALB/c-nu nude mice. The settings on record: A549, TTD 50 mg/kg/time intragastric, 3 times a day, 10 days, Day 24; for tumor inhibition rate: control = 0. As to the method: (§4) Under sterile conditions, the above tumor cells were collected in the logarithmic growth phase. A549 was injected by subcutaneous injection in an amount of 1×10 7/0 2 mL/nude mice (cell viability>90%) into the right subaxillary of the nude mice, and Hep G2 was injected by subcutaneous injection in an amount of 1×10^7/0.2 mL/nude mice (cell viability>90%) into the left subaxillary of the nude mice thus establishing transplated tumor models of lung cancer and liver cancer respectively in nude mice. The administration was carried out from the second day after the inoculation. The experimental group was intragastrically administered at the experimentally designed amount, the negative control group is intragastrically administered with sterile water, and the positive control group was intragastrically administered with Jef. Each mouse was intragastrically administered in 0.4 ml each time and 3 times a day, at 8:00, 14:00 and 20:00. The administrations were successive for 10 days. The day before administration was deemed as Day 0 and the body weight and tumor size of the mice were determined every 5 days to produce a dynamic plot on body weight and tumor growth. On Day 24, the mice were sacrificed and the tumors were taken out and weighed. The tumor inhibition rate (%) was calculated after the effect of the medicament based on a tumor inhibition rate of the control group being zero.
as §1

A short description of data set [10]: Example 4: body weight of tumor-bearing nude mice. It is filed as in vivo, BALB/c-nu nude mice. On the procedure: as §4, §1
For data set [11], the system named is Hep G2 transplanted tumor (human hepatoma carcinoma cell). As to the kind of experiment: Example 4: TTD on Hep G2 transplanted tumor in nude mice. The class given is in vivo, BALB/c-nu nude mice. Particulars: Hep G2, TTD 50 mg/kg/time intragastric, 3 times a day, 10 days, Day 24. As to the method: as §4, with “The experimental group was intragastrically administered at the experimentally designed amount, the negative control group is intragastrically administered with sterile water, and the positive control group was intragastrically administered with Jef. Each mouse was intragastrically administered in 0.4 ml each time and 3 times a day, at 8:00, 14:00 and 20:00. The administrations were successive for 10 days.” left out, “On Day 24, the mice were sacrificed and the tumors were taken out and weighed.” left out
as §1

Molecules are shown by their SMILES. Read-outs that look alike come from different tables or passages of the source.

On to `CC[C@@]1(O)C[C@H](O[C@H]2C[C@H](N(C)C)[C@H](O[C@H]3C[C@H](O)[C@H](O[C@H]4CCC(=O)[C@H](C)O4)[C@H](C)O3)[C@H](C)O2)c2c(cc3c(c2O)C(=O)c2c(O)cccc2C3=O)[C@H]1C(=O)OC` [Acla A, aclarubicin A], for which the “complete remission rate (CR)” value in [1] is given as “up to 70%”. The “prolonging the lifetime of the mice” value with leukemia mice is listed as 143%. In addition, the “survival rate increased, compared with mice without antibiotics injection” value in [2] is reported as 150%. Also, the “body weight, Final” value in data set [3] (Acla A 1 mg/kg/time intragastric, 2 times a day, 14 days, Day 20, Mean ± SD, n=3) was determined as 18.5 ± 1.10 g. In [3] (Acla A 1 mg/kg/time intragastric, 2 times a day, 14 days, Mean ± SD, n=3), the “body weight, Initial” value was found to be 21.0 ± 0.23 g. Besides, the “dynamic variation of the body weight (in words)” value in [3] (Acla A 1 mg/kg/time, during administration, recovered gradually after termination) is listed as “partial reduction in the body weight”. In data set [4] (intravenous injection), the “half-life t1/2” value is 16 to 21 h. Besides, in [4] (oral administration), the bioavailability is 35% and the “biological half-life t1/2” value is listed as 36.5 h. Moreover, the “inhibitory effect on lung cancer transplanted tumor (in words)” value in [5] (A549, Acla A 1 mg/kg/time) is “did not exhibit good inhibitory effect”. The molecule also registered a Mass of tumor in [5] (A549, Acla A 1 mg/kg/time intragastric, 2 times a day, 14 days, Day 20, Mean ± SD) of 0.50 ± 0.19 g. The tumor inhibition rate in [5] (A549, Acla A 1 mg/kg/time intragastric, 2 times a day, 14 days, Day 20, control = 0) is recorded as −51.52%. Besides, the cloning formation inhibited in data set [6] is given as 65.4%. Also, in data set [7] (RPMI-8226, 72 h, read-out: CV (cell viability)), the viability at 0.035 µg/mL came to 42.1%. For the same molecule, the IC50 in data set [7] (RPMI-8226, 72 h) stood at 0.035 µg/mL. Also, the viability at 0.03 µg/mL in data set [8] (read-out: CV (cell viability)) was 42.6%. Moreover, the IC50 in data set [8] turned out to be 0.03 µg/mL.
For `COc1ccc2cc1Oc1ccc(cc1)C[C@H]1c3cc(c(OC)cc3CCN1C)Oc1c(OC)c(OC)cc3c1[C@H](C2)N(C)CC3` [TTD, tetrandrine], the Mass of tumor was found to be 0.23 ± 0.35 g in [9] (Mean ± SD) and 0.53 ± 0.32 g in data set [11] (Mean ± SD). In addition, the figures for the tumor inhibition rate entry in data set [9], in [9] (listed as TTD50) and in data set [11] (control = 0) were “up to 38%”, 38.02% and −33.36%, respectively. Also, the “body weight, Final” value in data set [10] (TTD 50 mg/kg/time intragastric, 3 times a day, 10 days, Day 24, Mean ± SD, n=3) amounted to 20.6 ± 1.74 g. In data set [10] (TTD 50 mg/kg/time intragastric, 3 times a day, 10 days, Mean ± SD, n=3), the “body weight, Initial” value was found to be 21.1 ± 0.25 g. Also, in [10] (TTD 50 mg/kg/time, during administration, recovered gradually after termination), the “dynamic variation of the body weight (in words)” value is “partial reduction in the body weight”. Besides, the IC50 in data set [7] (RPMI 8226, single compound, 72 h, MTT) was 0.3 µg/mL; in data set [8] (single compound, MTT) it was 1 µg/mL. The viability at 1 µg/mL in [8] (TTD 1 μg/mL, MTT, control = 100%, read-out: CV (cell viability)) is 46.9%.

As usually defined, the bioavailability is dose-corrected exposure relative to a reference, in per cent. A word on the viability: it is the share of living cells, or the viability signal relative to a control.
